Test system: 817829-284-R-J1-PDC multi-cell spheroid viability
Test: Anticancer human tumor 817829-284-R-J1-PDC patient-derived colon adenocarcinoma cell line growth inhibition [PI3K]
Details: for IC50: curve of first compound; for viability, T/C: stronger effect = lower value
From the text: Combinatorial screen of targeted agents with the PI3K inhibitors inavolisib, alpelisib, duvelisib, and copanlisib in multi-cell type tumor spheroids
A high-throughput screen of multi-cell type tumor spheroids was designed to identify active combinations of targeted small molecules and PI3K pathway inhibitors. Complex spheroids include a stromal component modeled by human endothelial cells (HUVEC) and fibroblasts modeled by human mesenchymal stem cells (MSCs). The concentration ranges selected for each drug and investigational agent were based upon clinically achievable concentrations if the clinical Cmax of the agent was known.
Compounds. The drugs and investigational agents: inavolisib (NSC800729), alpelisib (NSC765974), duvelisib (NSC772469), copanlisib (NSC816437), ipatasertib (NSC767898), afuresertib (NSC778305), talazoparib (NSC767125), sapanisertib (NSC764658), selumetinib (NSC741078), tovorafenib (DAY101, NSC766906), vemurafenib (NSC761431), ravoxertinib (NSC781343), sotorasib (NSC818433), MRTX1133 (NSC 836407), abemaciclib (NSC 768073), palbociclib (NSC758247), venetoclax (NSC 766270), SY5609 (NSC837396), enzalutamide (NSC755605), and darolutamide (NSC825331), were obtained from the National Cancer Institute (NCI) Developmental Therapeutics Program Chemical Repository. The FDA-approved anticancer drug set is available from the NCI Developmental Therapeutics Program. […] The stock solutions were prepared in dimethyl sulfoxide (DMSO, Sigma-Aldrich, St. Louis, MO, cat. D2650) at 800-fold the tested concentration and stored at -70 degrees C prior to their use. All drugs and investigational agents were tested over a range starting from a high concentration at or near the clinical Cmax and decreasing in half-log increments. If the clinical Cmax for an agent had not been determined, the highest concentration tested was 10 microM.
Cell Culture. All cells were maintained in an incubator at 37 degrees C and 5% CO2 with 95% humidity. The PDC lines were cultured according to standard operating procedures established by the NCI PDMR (https://pdmr.cancer.gov/sops/default.htm). All PDCs were thawed and cultured in Matrigel-coated flasks prepared with a working solution of 1X Ham's F-12 nutrient mix, without supplementation (Invitrogen, Waltham, MA, cat. 11765054), 100 U/mL penicillin-streptomycin (Invitrogen, cat. 15140122), and 2.5% Matrigel (Corning Inc., Corning, NY, cat. 354248) for the first three passages. The 354836-022-R-J1-PDC, 475296-252-R-J1-PDC, and 997726-040-R-J2-PDC lines were cultured in 6A media, which includes advanced DMEM/F-12 (Thermo Fisher Scientific, cat. 12634028), 10 mM HEPES (Thermo Fisher Scientific, cat. 15630080), 1X GlutaMAX supplement (Thermo Fisher Scientific, cat. 35050061), 0.1 mg/mL primocin (InvivoGen, San Diego, CA, cat. ant-pm-2), 10% defined fetal bovine serum, heat inactivated (HyClone Laboratories Inc., Logan, UT, cat. SH30070.03HI), 50% L-WRN conditioned media (ATCC, cat. CRL-3276), 1.25 mM N-Acetyl-L-cysteine (Sigma-Aldrich, cat. A9165), 10 mM nicotinamide (Sigma-Aldrich, cat. N0636), 1X B-27 supplement (Thermo Fisher Scientific, cat. 17504044), 1X N-2 supplement (Thermo Fisher Scientific, cat. 17502048), and 10 microM Y-27632 dihydrochloride (Tocris Bioscience, Bristol, United Kingdom, cat. 1254). The 624824-186-R-J2-PDC line was cultured in 6C/Colon 1B media, which includes all 6A media components plus 50 ng/mL human EGF recombinant protein (Thermo Fisher Scientific, cat. PHG0311). […]

[1] = second compound 0.00316 µM, first compound 0.000316 µM
[2] = second compound 0.00316 µM, first compound 0.001 µM
[3] = second compound 0.00316 µM, first compound 0.00316 µM
[4] = second compound 0.00316 µM, first compound 0.01 µM
[5] = second compound 0.00316 µM, first compound 0.0316 µM
[6] = second compound 0.00316 µM, first compound 0.1 µM
[7] = second compound 0.01 µM, first compound 0.000316 µM
[8] = second compound 0.01 µM, first compound 0.001 µM
[9] = second compound 0.01 µM, first compound 0.00316 µM
[10] = second compound 0.01 µM, first compound 0.01 µM
[11] = second compound 0.01 µM, first compound 0.0316 µM
[12] = second compound 0.01 µM, first compound 0.1 µM
[13] = second compound 0.0316 µM, first compound 0.000316 µM
[14] = second compound 0.0316 µM, first compound 0.001 µM
[15] = second compound 0.0316 µM, first compound 0.00316 µM
[16] = second compound 0.0316 µM, first compound 0.01 µM
[17] = second compound 0.0316 µM, first compound 0.0316 µM
[18] = second compound 0.0316 µM, first compound 0.1 µM
[19] = second compound 0.1 µM, first compound 0.000316 µM
[20] = second compound 0.1 µM, first compound 0.001 µM
[21] = second compound 0.1 µM, first compound 0.00316 µM
[22] = second compound 0.1 µM, first compound 0.01 µM
[23] = second compound 0.1 µM, first compound 0.0316 µM
[24] = second compound 0.1 µM, first compound 0.1 µM
[25] = second compound 0.316 µM, first compound 0.000316 µM
[26] = second compound 0.316 µM, first compound 0.001 µM
[27] = second compound 0.316 µM, first compound 0.00316 µM
[28] = second compound 0.316 µM, first compound 0.01 µM
[29] = second compound 0.316 µM, first compound 0.0316 µM
[30] = second compound 0.316 µM, first compound 0.1 µM
[31] = second compound 1 µM, first compound 0.000316 µM
[32] = second compound 1 µM, first compound 0.001 µM
[33] = second compound 1 µM, first compound 0.00316 µM
[34] = second compound 1 µM, first compound 0.01 µM
[35] = second compound 1 µM, first compound 0.0316 µM
[36] = second compound 1 µM, first compound 0.1 µM
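Further: spheroids exposed to agents for seven days before readout.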
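Wherever viability, T/C is given: percent of vehicle DMSO control viability which is 100%.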

Compound `CC(C)n1nc(-c2ccc3oc(N)nc3c2)c2c(N)ncnc21` + CC(Nc1ccc2c(c1)OCCn1cc(N3C(=O)OCC3C(F)F)nc1-2)C(N)=O has an IC50 (second compound 0.00316 µM) of 6.7 nM, an IC50 (second compound 0.01 µM) of 22.8 nM and an IC50 (second compound 0.0316 µM) of 8.64 nM. The IC50 (second compound 0.1 µM) was 4.55 nM, the IC50 (second compound 0.316 µM) was 4.35 nM and the IC50 (second compound 1 µM) was < 0.316 nM. For the same compound, the viability, T/C [1] was 112%, the viability, T/C [2] was 51.6% and the viability, T/C [3] was 65.3%. It also gave a viability, T/C [4] of 60.2%, a viability, T/C [5] of 27.9% and a viability, T/C [6] of 16.2%. It also gave a viability, T/C [7] of 60.2%, a viability, T/C [8] of 63.8% and a viability, T/C [9] of 69.5%. The viability, T/C [10] was 68.1%, the viability, T/C [11] was 43.9% and the viability, T/C [12] was 14.7%. It also gave a viability, T/C [13] of 114%, a viability, T/C [14] of 73.1% and a viability, T/C [15] of 73.9%. It also gave a viability, T/C [16] of 50.3%, a viability, T/C [17] of 28.1% and a viability, T/C [18] of 12.8%. For the same compound, the viability, T/C [19] was 59.7%, the viability, T/C [20] was 38.7% and the viability, T/C [21] was 76.4%. The viability, T/C [22] was 32%, the viability, T/C [23] was 32.1% and the viability, T/C [24] was 13.8%. It also gave a viability, T/C [25] of 53.7%, a viability, T/C [26] of 68.9% and a viability, T/C [27] of 48.7%. For the same compound, the viability, T/C [28] was 41.7%, the viability, T/C [29] was 22.2% and the viability, T/C [30] was 13.8%. It also gave a viability, T/C [31] of 56.8%, a viability, T/C [32] of 30.8% and a viability, T/C [33] of 38.3%. The viability, T/C [34] was 27.3%, the viability, T/C [35] was 79.8% and the viability, T/C [36] was 18.4%.

`CC1(C)CCC(CN2CCN(c3ccc(C(=O)NS(=O)(=O)c4ccc(NCC5CCOCC5)c([N+](=O)[O-])c4)c(Oc4cnc5[nH]ccc5c4)c3)CC2)=C(c2ccc(Cl)cc2)C1` + CC(Nc1ccc2c(c1)OCCn1cc(N3C(=O)OCC3C(F)F)nc1-2)C(N)=O was tested, and the IC50 (second compound 0.00316 µM) was 4080 nM, the IC50 (second compound 0.01 µM) was 3700 nM and the IC50 (second compound 0.0316 µM) was 2670 nM. For the same compound, the IC50 (second compound 0.1 µM) was 605 nM, the IC50 (second compound 0.316 µM) was 31.6 nM and the IC50 (second compound 1 µM) was 2790 nM. It also gave a viability, T/C [5] of 74.4%, a viability, T/C [6] of 87.8% and a viability, T/C (second compound 0.00316 µM, first compound 0.316 µM) of 38.3%. It also gave a viability, T/C (second compound 0.00316 µM, first compound 1 µM) of 71.4%, a viability, T/C (second compound 0.00316 µM, first compound 3.16 µM) of 62.4% and a viability, T/C (second compound 0.00316 µM, first compound 10 µM) of 5.89%. The viability, T/C [11] was 55.4%, the viability, T/C [12] was 64.8% and the viability, T/C (second compound 0.01 µM, first compound 0.316 µM) was 106%. The viability, T/C (second compound 0.01 µM, first compound 1 µM) was 69.1%, the viability, T/C (second compound 0.01 µM, first compound 3.16 µM) was 57.3% and the viability, T/C (second compound 0.01 µM, first compound 10 µM) was 5.49%. The viability, T/C [17] was 66.2%, the viability, T/C [18] was 107% and the viability, T/C (second compound 0.0316 µM, first compound 0.316 µM) was 60.8%. The viability, T/C (second compound 0.0316 µM, first compound 1 µM) was 65.3%, the viability, T/C (second compound 0.0316 µM, first compound 3.16 µM) was 49.8% and the viability, T/C (second compound 0.0316 µM, first compound 10 µM) was 6.29%. It also gave a viability, T/C [23] of 78.9%, a viability, T/C [24] of 54.8% and a viability, T/C (second compound 0.1 µM, first compound 0.316 µM) of 58.1%. The viability, T/C (second compound 0.1 µM, first compound 1 µM) was 39.4%, the viability, T/C (second compound 0.1 µM, first compound 3.16 µM) was 39.2% and the viability, T/C (second compound 0.1 µM, first compound 10 µM) was 3.75%. It also gave a viability, T/C [29] of 45.7%, a viability, T/C [30] of 44.6% and a viability, T/C (second compound 0.316 µM, first compound 0.316 µM) of 59.5%. The viability, T/C (second compound 0.316 µM, first compound 1 µM) was 41.2%, the viability, T/C (second compound 0.316 µM, first compound 3.16 µM) was 60.4% and the viability, T/C (second compound 0.316 µM, first compound 10 µM) was 3.08%. The viability, T/C [35] was 77.2%, the viability, T/C [36] was 44% and the viability, T/C (second compound 1 µM, first compound 0.316 µM) was 70.8%. The viability, T/C (second compound 1 µM, first compound 1 µM) was 59%, the viability, T/C (second compound 1 µM, first compound 3.16 µM) was 49% and the viability, T/C (second compound 1 µM, first compound 10 µM) was 6.25%.

For `Cn1ncnc1[C@H]1c2n[nH]c(=O)c3cc(F)cc(c23)N[C@@H]1c1ccc(F)cc1` + CC(Nc1ccc2c(c1)OCCn1cc(N3C(=O)OCC3C(F)F)nc1-2)C(N)=O, the IC50 (second compound 0.00316 µM) was > 100 nM, the IC50 (second compound 0.01 µM) was 75 nM and the IC50 (second compound 0.0316 µM) was 10 nM. The IC50 (second compound 0.1 µM) was 47.7 nM, the IC50 (second compound 0.316 µM) was 12.1 nM and the IC50 (second compound 1 µM) was < 0.316 nM. For the same compound, the viability, T/C [1] was 95.4%, the viability, T/C [2] was 58.2% and the viability, T/C [3] was 104%. It also gave a viability, T/C [4] of 35%, a viability, T/C [5] of 71.1% and a viability, T/C [6] of 53%. For the same compound, the viability, T/C [7] was 75.1%, the viability, T/C [8] was 66% and the viability, T/C [9] was 75%. The viability, T/C [10] was 68.3%, the viability, T/C [11] was 70.2% and the viability, T/C [12] was 43.3%. It also gave a viability, T/C [13] of 81.7%, a viability, T/C [14] of 101% and a viability, T/C [15] of 46.9%. For the same compound, the viability, T/C [16] was 65%, the viability, T/C [17] was 53.5% and the viability, T/C [18] was 43.6%. For the same compound, the viability, T/C [19] was 65.6%, the viability, T/C [20] was 52.2% and the viability, T/C [21] was 60.3%. It also gave a viability, T/C [22] of 70.9%, a viability, T/C [23] of 43% and a viability, T/C [24] of 46.6%. For the same compound, the viability, T/C [25] was 40.1%, the viability, T/C [26] was 65.8% and the viability, T/C [27] was 61.2%. The viability, T/C [28] was 39.4%, the viability, T/C [29] was 49.8% and the viability, T/C [30] was 33.3%. It also gave a viability, T/C [31] of 31.9%, a viability, T/C [32] of 60.9% and a viability, T/C [33] of 43.1%. For the same compound, the viability, T/C [34] was 42.3%, the viability, T/C [35] was 36.7% and the viability, T/C [36] was 20.8%.

Reference: PubChem BioAssay AID1963969 (Molecular Pharmacology Branch, DTP, NCI, 2024)
